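All cell lines were grown in 96-well plates and treated with compound for 48 hours. Here, GI50 denotes the concentration required for 50% inhibition of growth.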 Calls of active or inactive are those of the source. No stated cut-off is given here; in the data, active = GI50 up to about 1.1 µM and inactive = higher. Some results are limits rather than exact numbers.

The record followed here is ChEMBL document CHEMBL1201862, “PubChem BioAssay data set” (2004).

What all share (test): growth of human tumour cells (NCI), 48 h
In assay [1] the test system is OVCAR-8.
Assay [2] concerns SN12C.
For assay [3], the system named is HT-29.
The subject of assay [4] is IGROV-1.
Assay [5] deals with EKVX.
For assay [6], the system named is Malme-3M.
Assay [7] deals with HL-60.
Assay [8] deals with UACC-257.
The subject of assay [9] is HOP-92.
For assay [10], the system named is TK-10.
The test system of assay [11] is KM12.
Assay [12] deals with RPMI-8226.
The subject of assay [13] is NCI-H226.
For assay [14], the system named is OVCAR-3.
Assay [15] relates to HCC 2998.
Assay [16] deals with SK-MEL-28.
For assay [17], the system named is HCT-15.
Assay [18] deals with RXF 393.

Regarding `Cc1cccc2c1N(C(=O)/C=C\C(=O)O)C(c1c(C)[nH]c3ccccc13)C2` (stereo unspecified), the GI50 in [1] is 55.6 µM (inactive); in [2] it was 40.7 µM (inactive); in [3], > 100 µM (inactive); in assay [4], > 10 µM (inactive); in assay [5], > 100 µM (inactive); in [6], 20.1 µM (inactive). Besides, the GI50 in assay [7] was 20.7 µM (inactive); in assay [8], 33.8 µM (inactive); in [9], 22.5 µM (inactive); in assay [10] it was 73.5 µM (inactive); in [11], 33.5 µM (inactive); in assay [12], 28.4 µM (inactive). Moreover, the GI50 in assay [13] is 49.3 µM (inactive); in assay [14], > 10 µM (inactive); in assay [15], 18.5 µM (inactive); in [16] it was 21.9 µM (inactive).
Consider `O=[N+]([O-])c1ccc(Cl)cc1C1SCc2nc3ccccc3n21` (stereo unspecified), for which the GI50 is 60.8 µM (inactive) in assay [1]; 54.1 µM (inactive) in [2]; > 100 µM (inactive) in assay [3]; 80.5 µM (inactive) in [4]; 31 µM in assay [17]; 69.7 µM (inactive) in assay [5]. Also, the GI50 is 99.8 µM (inactive) in assay [6]; 31 µM (inactive) in [7]; 45.2 µM (inactive) in assay [8]; 87.5 µM (inactive) in assay [10]; 41.9 µM (inactive) in assay [11]; 26.6 µM (inactive) in assay [18]. Further, the GI50 in assay [12] is 31.2 µM (inactive); in [14] it was 54.1 µM (inactive); in [15], 86.3 µM (inactive); in assay [16], > 100 µM (inactive).
Take `COc1cc2c(cc1OC)C(C(=O)c1cccc(OC)c1OC)C(=O)N(C)CC2` (stereo unspecified): the GI50 in assay [1] is > 100 µM (inactive); in assay [2], > 100 µM (inactive); in assay [3] it was > 100 µM (inactive); in assay [4], > 100 µM (inactive); in assay [17], more than 100 µM; in assay [6], > 100 µM (inactive). Also, the GI50 is > 100 µM (inactive) in assay [7]; > 100 µM (inactive) in assay [8]; 65.5 µM (inactive) in [9]; > 100 µM (inactive) in assay [10]; > 100 µM (inactive) in assay [11]; > 100 µM (inactive) in assay [18]. The GI50 in assay [12], in [13], in assay [14] and in assay [16] was > 100 µM (inactive) throughout.
For the compound `CC1CCSC(N(C(=O)N(C)c2ccccc2)c2ccccc2)=N1` (stereo unspecified), the GI50 is > 100 µM (inactive) in assay [1]; > 100 µM (inactive) in [2]; > 100 µM (inactive) in [3]; > 100 µM (inactive) in [4]; more than 100 µM in [17]; > 100 µM (inactive) in assay [5]. For the same compound, the GI50 in assay [6], in [7], in assay [8], in assay [10], in [11] and in [18] was > 100 µM (inactive) in each case. For the same compound, the GI50 in assay [12] is > 100 µM (inactive); in [13], 74.1 µM (inactive); in assay [14], > 100 µM (inactive); in assay [15] it was > 100 µM (inactive); in assay [16] it was > 100 µM (inactive).
For the compound `Fc1cccc2cc3ccc4cccc5ccc(c12)c3c45`, the GI50 in assay [1] was > 100 µM (inactive); in assay [2], > 100 µM (inactive); in assay [3] it was > 100 µM (inactive); in assay [4], > 100 µM (inactive); in assay [5] it was 2.66 µM (inactive); in [6] it was > 100 µM (inactive). The GI50 in assay [7] was > 100 µM (inactive); in assay [8] it was > 100 µM (inactive); in [10] it was 0.721 µM (active); in [11], > 100 µM (inactive); in assay [18], > 100 µM (inactive); in [13], 7.66 µM (inactive). The GI50 in [14] was > 100 µM (inactive); in assay [15] it was 7.52 µM (inactive); in assay [16] it was > 100 µM (inactive).
Regarding `CSc1nc(NC2OC(COC(C)=O)C(OC(C)=O)C(OC(C)=O)C2OC(C)=O)c(-c2csc(N)n2)c(=O)n1C` (stereo unspecified), the GI50 was 26.1 µM (inactive) in assay [1]; 49.5 µM (inactive) in [2]; > 100 µM (inactive) in [3]; 34.1 µM (inactive) in assay [4]; 97.1 µM in [17]; 28.9 µM (inactive) in assay [6]. Also, the GI50 was > 100 µM (inactive) in [7]; 32.9 µM (inactive) in [8]; 23.5 µM (inactive) in [9]; > 100 µM (inactive) in [10]; > 100 µM (inactive) in [11]; > 100 µM (inactive) in [12]. For the same compound, the results for the GI50 in [13], in assay [14] and in assay [16] were 15.7 µM (inactive), 54 µM (inactive) and 37.7 µM (inactive), respectively.
In the case of `CN(C)C(=S)/N=c1\ss/c(=N\C(=S)N(C)C)n1-c1ccc(Cl)c(Cl)c1`, the GI50 is > 100 µM (inactive) in [1]; > 100 µM (inactive) in [2]; > 100 µM (inactive) in [3]; > 100 µM (inactive) in assay [4]; more than 100 µM in assay [17]; > 100 µM (inactive) in [5]. Also, the GI50 in assay [6] is > 100 µM (inactive); in assay [7] it was > 100 µM (inactive); in assay [8] it was > 100 µM (inactive); in assay [10], > 100 µM (inactive); in assay [11], > 100 µM (inactive); in assay [18] it was 89.9 µM (inactive). Also, the GI50 in [12], in [13], in assay [14], in assay [15] and in [16] was > 100 µM (inactive) each time.
For the compound `COC(=O)C(=O)C(C#N)c1cccc2ccccc12` (stereo unspecified), the GI50 in assay [1] is > 100 µM (inactive); in assay [2], > 100 µM (inactive); in assay [3], > 100 µM (inactive); in [4], > 100 µM (inactive); in [17] it was more than 100 µM; in [5], > 100 µM (inactive). Also, the GI50 was > 100 µM (inactive) in assay [6]; > 100 µM (inactive) in assay [7]; > 100 µM (inactive) in assay [8]; > 100 µM (inactive) in assay [9]; 22.9 µM (inactive) in assay [11]; > 100 µM (inactive) in assay [12]. Further, the GI50 in assay [13], in assay [14], in [15] and in assay [16] was > 100 µM (inactive) in each case.
For the compound `COc1cc2c(c(OC)c1)C1(CC(CC#N)C2)SCCS1` (stereo unspecified), the GI50 in assay [1] was > 100 µM (inactive); in [2] it was > 100 µM (inactive); in [4], > 100 µM (inactive); in [17], more than 100 µM; in assay [6] it was > 100 µM (inactive); in assay [7], > 100 µM (inactive). Moreover, the GI50 in assay [8], in assay [10], in assay [11], in [18], in [12] and in assay [13] was > 100 µM (inactive) each time. For the same compound, the GI50 in assay [14], in [15] and in assay [16] was > 100 µM (inactive) throughout.
On to `O=C(c1ccccn1)c1nc(-c2ccc(Cl)c(Cl)c2)nc2ccc(Cl)cc12`, for which the GI50 in [1] was > 100 µM (inactive); in assay [3] it was > 100 µM (inactive); in assay [4], 35 µM (inactive); in assay [17], 39.2 µM; in assay [5], 74.5 µM (inactive); in [6], 32.3 µM (inactive). Also, the GI50 was > 100 µM (inactive) in assay [7]; > 100 µM (inactive) in assay [8]; 67 µM (inactive) in assay [10]; > 100 µM (inactive) in [11]; 18.7 µM (inactive) in assay [18]; > 100 µM (inactive) in [12]. The GI50 in assay [13] was 23.1 µM (inactive); in assay [14] it was 42.7 µM (inactive); in [15] it was > 100 µM (inactive); in [16] it was > 100 µM (inactive).
As to `ONc1ncnc2[nH]cnc12`, the GI50 in assay [1] is > 100 µM (inactive); in assay [3], > 100 µM (inactive); in [4], > 100 µM (inactive); in assay [17] it was more than 100 µM; in assay [6], > 100 µM (inactive); in assay [7] it was 14.7 µM (inactive). Also, the GI50 is > 100 µM (inactive) in assay [8]; > 100 µM (inactive) in assay [9]; > 100 µM (inactive) in [10]; > 100 µM (inactive) in assay [11]; 58.2 µM (inactive) in assay [12]; > 100 µM (inactive) in [13]. The GI50 in [14], in assay [15] and in assay [16] was > 100 µM (inactive) each time.
Regarding `Cc1c2ccncc2c(C)c2c1[nH]c1ccc(Cl)cc12`, the GI50 was 1.22 µM (inactive) in assay [1]; 3.41 µM (inactive) in assay [2]; 2.2 µM (inactive) in [3]; 2.86 µM (inactive) in assay [4]; 1.75 µM in assay [17]; 4.84 µM (inactive) in [5]. Moreover, the GI50 was 5.68 µM (inactive) in assay [6]; 2.11 µM (inactive) in [7]; 6.07 µM (inactive) in assay [10]; 1.86 µM (inactive) in assay [11]; 4.58 µM (inactive) in assay [18]; 1.59 µM (inactive) in [12]. Further, the GI50 in assay [13] is 3.17 µM (inactive); in assay [14], 2.2 µM (inactive); in assay [15] it was 7.76 µM (inactive); in [16], 5.69 µM (inactive).
Consider `COc1ccc(C2CC(=O)c3c(O)cc(O)cc3O2)cc1O` (stereo unspecified), for which the GI50 in assay [1] is > 100 µM (inactive); in assay [2], > 100 µM (inactive); in [3] it was > 100 µM (inactive); in [4], > 100 µM (inactive); in assay [17] it was more than 100 µM; in [5] it was > 100 µM (inactive). In addition, the GI50 in assay [6] is > 100 µM (inactive); in assay [7], > 100 µM (inactive); in assay [8] it was > 100 µM (inactive); in assay [10], > 100 µM (inactive); in assay [11] it was > 100 µM (inactive); in assay [12], 78 µM (inactive). Besides, the GI50 in [13], in assay [14], in assay [15] and in assay [16] was > 100 µM (inactive) throughout.
